The subject of data set [1] is S. aureus ATCC29213. The data set is described as follows: Antibacterial assay (MIC). In kind it is cell-based. The following applies: Staphylococcus aureus. The procedure:
(§1) The minimal inhibitory concentration (MIC) was determined as described previously in cation-adjusted Mueller-Hinton medium according to the standards and guidelines of the Clinical and Laboratory Standards Institute. […] After an overnight incubation at 37 °C, the MIC was read as the lowest compound concentration preventing visible bacterial growth. The strain panel included representative species of nosocomial pathogens, known as “[…]” bacteria. Specifically, the following strains were used: Enterococcus faecium BM 4147-1, Staphylococcus aureus ATCC 29213, Klebsiella pneumoniae ATCC 12657, Acinetobacter baumannii 09987, Pseudomonas aeruginosa ATCC 27853, and Enterobacter aerogenes ATCC 13048. Bacillus subtilis 168, Escherichia coli ATCC 25922, and Mycobacterium smegmatis mc^2 155 ATCC 700084 were used as further reference strains.

In data set [2] the test system is E. faecium BM4147-1. The data set is described as follows: Antibacterial assay (MIC). The format is cell-based. The following applies: Enterococcus faecium, BM41471. On the procedure:
as §1

Data set [3] deals with B. subtilis 168. As to the kind of experiment: Antibacterial assay (MIC). In kind it is cell-based. The conditions noted are these: Bacillus subtilis. On the procedure:
as §1

In data set [4] the test system is K. pneumoniae ATCC12657. The data set is described as follows: Antibacterial assay (MIC). In kind it is cell-based. The following applies: Klebsiella pneumoniae. On the procedure: as §1
Data set [5] concerns A. baumannii 09987. The data set is described as follows: Antibacterial assay (MIC). In kind it is cell-based. The conditions noted are these: Acinetobacter baumannii. The procedure: as §1
Data set [6] relates to P. aeruginosa ATCC27853. The data set is described as follows: Antibacterial assay (MIC). In kind it is cell-based. The following applies: Pseudomonas aeruginosa. On the procedure:
as §1

Data set [7] deals with E. coli ATCC25922. As to the kind of experiment: Antibacterial assay (MIC). In kind it is cell-based. The conditions noted are these: Escherichia coli. On the procedure:
as §1

Data set [8] deals with E. aerogenes ATCC13048. As to the kind of experiment: Antibacterial assay (MIC). The format is cell-based, Enterobacter aerogenes. The conditions noted are these: Klebsiella aerogenes. The procedure: as §1
The test system of data set [9] is panel comprising 60 human cancer cell lines. The data set is described as follows: One dose NCI-60 cell-line cytotoxicity screen. The format is cell-based. The following applies: single high dose. The source says:
One dose NCI-60 panel: 1 was selected for the anticancer drug screening service as a part of the Developmental Therapeutics Program at the National Cancer Institute (NCI). In vitro tumor growth inhibitory effects were explored using a standard protocol with a single high dose test against a panel comprising 60 human cancer cell lines. It is noteworthy to mention that we had to remove the results of the NCI-H23 cell line, since NCI informed us that its cell line’s identity was not authenticated during the time frame in which the screening of 1 was conducted.

In data set [10] the test system is T. cruzi Tulahuen strain C2C4. As to the kind of experiment: Activity against T. cruzi in L-6 cells (beta-galactosidase/CPRG). The following applies: in vitro, Tulahuen C2C4 in L-6 cells, Table 2 values are means of two independent assays. In kind it is cell-based, Trypanosoma cruzi. On the procedure:
Activity against T. cruzi. Rat skeletal myoblasts (L-6 cells) were seeded in 96-well microtiter plates at 2000 cells/well in 100 μL RPMI 1640 medium with 10% FBS and 2 mM L-glutamine. After 24 h, the media in each well was removed and replaced with 100 μL of fresh media containing 5000 trypomastigote forms of T. cruzi Tulahuen strain C2C4 containing the β-galactosidase (lacZ) gene. After 48 h, the media was removed from the wells again, and this time, replaced by 100 μL fresh medium with or without 1 from 100 to 0.002 μg/mL. After 96 h of incubation, the plates were inspected under an inverted microscope to assess growth and sterility of the controls. Then, the substrate CPRG/Nonidet (50 μL) was added to all wells. A color reaction developed within 2–6 h and could be read photometrically at 540 nm.

Data set [11] has as its system Severe Acute Respiratory Syndrome Corona Virus type 2 (SARS-CoV-2). In kind it is cell-based. The following applies: up to the highest concentration tested (10 µM), CaCo2 cells.
Data set [12] has as its system Litomosoides sigmodontis adult female worms. As to the kind of experiment: Anthelmintic assay, motility of adult filariae cultured in vitro. The format is cell-based. The conditions noted are these: 0.1, 1 and 10 µM; scale 0 (immotile) to 2 (maximum motility); 2.0 in media controls. On the procedure:
To investigate the activity against filarial nematodes, adult female worms of the rodent filarial nematode Litomosoides sigmodontis were cultured in vitro with a 0.1, 1 and 10 µM concentration of 1. Motility of adult filariae as well as reduction of Wolbachia endosymbionts were assessed. […] L. sigmodontis adult female worms were isolated from chronically infected cotton rats (UKB). Three L. sigmodontis female adult worms per condition were cultured in supplemented Minimal Essential Medium (MEM) on a LLCMK2 cell layer, as previously described. […] Candidate 1 was tested at concentrations of 0.1, 1 and 10 µM. Filarial viability was assessed by determining the mean worm motility scores on a scale of 0 (immotile) to 2 (maximum motility) before drug addition and at 1 h, 1 day, 2 day, 4 day, 6 day, 8 day, 10 day, 12 day and 14 day post drug addition. The drug-containing media was renewed every other day. Depletion of Wolbachia endosymbionts from female adult worms was analyzed after two weeks of in vitro culture and determined as previously described using primers for the single copy gene Wolbachia ftsZ.

The nature of data set [13]: Observed stability of the isolated compounds. The conditions noted are these: rapid decomposition after the NMR measurements. In kind it is physicochemical. The source says:
The shift values of the terminal heterocycle were in very good agreement with literature data from similar natural products, bearing a γ-hydroxy-γ-butenolide moiety. Analogous to compound 7, the Δ^8,10 double bond of 8 was defined as E (C-9: δC 16.2 and NOESY cross correlations depicted in Figure 4). Likewise, based on the same observed diagnostic NOE crosspeaks for the indene system (Figure S43B) and for biogenetic reasons, we propose that 8 is 11R*, 15R*, 18S*, 20R*, 21S* configured. […] Therefore, we integrated computational methods and aimed for quantum-mechanical predictions of ^1H and ^13C NMR chemical shifts of a 1S- and a 1R-configured version of 8.
All tests were performed with 1 as a pre-screening for the scaffold’s activity within their respective assays. Based on the results from the pre-screening, the biological evaluation of the structural congeners was planned. Unfortunately, an instability phenomenon affected the purity of the isolated compounds. Due to the limited amounts of the isolated compounds, repurification would not have yielded the required sample quantity for the assays. This reality precluded biological evaluation of the structural congeners 3–8.

The test system of data set [14] is Human Cytomegalovirus (HCMV). The format is cell-based. The following applies: up to the highest concentration tested (10 µM), HFF cells.
In data set [15] the test system is M. smegmatis mc2 155. The data set is described as follows: Antibacterial assay (MIC). In kind it is cell-based, Mycobacterium smegmatis. The following applies: Mycolicibacterium smegmatis, MC2155. On the procedure: as §1

Broadly, the MIC is the lowest concentration that inhibits growth of the organism. Read a high MIC as a need for much substance. By IC50 is commonly meant the concentration needed to halve the response being measured. The low end stands for greater potency in that assay, the high end for weaker potency in that assay.

Consider `CC1=C[C@@H](/C=C(\C)CCCc2ccoc2)[C@]2(OC(=O)C(C)=C2O)[C@@H]2[C@@H](C)CC[C@@H]12` [compound 1, Ircinianin], for which the MIC in data set [1], in data set [2], in data set [3], in data set [4], in [5] and in [6] was over 32 µg/mL throughout. Further, the MIC in data set [7], in data set [8] and in [15] was over 32 µg/mL throughout. The “Activity in NCI 60 cell-line cytotoxicity screen” value in [9] is listed as “no activity”. Moreover, the IC50 in data set [10] was over 80 µM; in [10] (listed as Ircinianin (1)), 191 µM. Also, the “Inhibition of SARS-CoV-2 infection” value in [11] is “no inhibition”. For the same compound, in data set [12], the motility score is recorded as 1.7–1.8. Further, the “Stability of isolated compound” value in [13] is “unstable”. The “Inhibition of HCMV infection” value in [14] is “no inhibition”.
